The values below come from patent US20050171169A1, “Combination chemotherapy for helminth infections” (priority 2004, published 2005).

Data set [1] concerns E. multilocularis metacestode tissue. Put plainly: Histology and transmission electron microscopy of metacestode tissue from treated mice (Example 5). It is filed as in vivo, Echinococcus multilocularis. Conditions: for Ultrastructural alterations of metacestode tissue (TEM): tissue from treated infected mice vs CMC-control; for Histology of metacestode tissue: tissue from treated infected mice vs control. As for the experimental part: For histological and transmission electron microscopy (TEM) analysis, tissue samples were fixed in 3% paraformaldehyde/1% glutaraldehyde in 100 mM sodium cacodylate buffer (pH 7.2) for 24 h at 4° C., and postfixed in 2% OsO4 in cacodylate buffer for 4 h at room temperature. The samples were then processed and embedded in Epon 812 epoxy resin as described previously in: Hemphill, A., and S. L. Croft. 1997. Electron microscopy in Parasitology. In: p. 227-268. M. Rogan (ed), Analytical Parasitology, Springer Verlag, Heidelberg. Sections of […] in thickness were used for histological examination, and ultrathin sections 80-100 nm for transmission electron microscopy. Sections were loaded onto 300-mesh copper grids, and were contrasted with uranyl acetate and lead citrate as described previously in: Hemphill, A., and S. L. Croft. 1997. Electron microscopy in Parasitology. In: p. 227-268. M. Rogan (ed), Analytical Parasitology, Springer Verlag, Heidelberg. Specimens were viewed on a Phillips 300 transmission electron microscope operating at 60 kV.
Because it was not possible to investigate alterations of the actual parasite tissue on the germinal layer using histology, transmission electron microscopy was performed on sections obtained from the same tissue blocks. For evaluating the ultrastructural changes occurring during drug treatments, it is important to note that the process of tissue damage was not uniform, as it progressed at different rates in different metacestode vesicles. However, within a single metacestode, damage was rather homogenous. Therefore, a large number of different metacestodes, and as a consequence, different areas of a tissue block, were investigated in order to show a complete picture of the tissue alterations induced by ABZ, NTZ, and NTZ/ABZ-treatments.

Data set [2] deals with E. multilocularis metacestodes. Put plainly: Secondary infection with E. multilocularis metacestodes, chemotherapy starting at two months post infection (Example 2). It is filed as in vivo, Echinococcus multilocularis. As to conditions: Balb/c mice; treatment initiated 2 months p.i., daily for 35 days; vs CMC control (4.3±0.9 g). Here is the method:
E. multilocularis metacestodes (isolate IM280) were maintained by serial transplantation passages through intraperitoneal (i.p.) injection in gerbils (Meriones unguiculatus). Animals were sacrificed at four to ten weeks p.i, and the parasite material was removed from the peritoneal cavity under aseptic conditions, placed into Hanks balanced salt solution (HBSS), and washed several times. Vesicle suspensions were prepared as described in Hemphill, A., and B. Gottstein. 1995. Immunology and morphology studies on the proliferation of in vitro cultivated Echinococcus multilocularis metacestodes. Parasitol. Res. 81: 605-614. Vesicles were washed once in HBSS, and the number of intact metacestodes in 50 ml HBSS was determined microscopically. […]
(§1) For assessments of secondary infections, parasite tissue was carefully removed from the peritoneal cavity, and the parasite weight was determined as described in: Dai, W. J., and B. Gottstein. […]
(§2) For serological and lymphocyte proliferation assays, blood was taken from euthanized mice by heart puncture, and total IgG-, as well as IgG1- and IgG2a-isotype levels against crude E. multilocularis extract (Faub-antigen) and vesicle fluid antigen, were determined according to: Dai, W. J., A. Hemphill, A. Waldvogel, K. Ingold, P. Deplazes, H. Mossmann, and B. Gottstein. […]

For data set [3] the following is noted: mice and humans, literature; cited from earlier work.
Data set [4] relates to E. multilocularis metacestodes. The data set can be described thus: Secondary infection with E. multilocularis metacestodes, chemotherapy starting at the timepoint of infection (Example 1). It is filed as in vivo, Echinococcus multilocularis. Conditions: Balb/c mice, i.p. 20 metacestodes; daily intragastric treatment from day of infection for 35 days; necropsy day 36; CMC group 0.23±0.05 g. As for the experimental part:
E. multilocularis metacestodes (isolate IM280) were maintained by serial transplantation passages through intraperitoneal (i.p.) injection in gerbils (Meriones unguiculatus). Animals were sacrificed at four to ten weeks p.i, and the parasite material was removed from the peritoneal cavity under aseptic conditions, placed into Hanks balanced salt solution (HBSS), and washed several times. Vesicle suspensions were prepared as described in Hemphill, A., and B. Gottstein. 1995. Immunology and morphology studies on the proliferation of in vitro cultivated Echinococcus multilocularis metacestodes. Parasitol. Res. 81: 605-614. Vesicles were washed once in HBSS, and the number of intact metacestodes in 50 ml HBSS was determined microscopically. The metacestode suspension was adjusted to 20 intact vesicles/[…], and was used for infection experiments immediately.
Six week old Balb/c mice were housed in a temperature-controlled light-cycle room with food and water ad libitum. The mice were separated into experimental groups of 10 animals each. Drug suspensions (30 mg/ml NTZ, 10 mg/ml ABZ, and 30 mg NTZ plus 10 mg ABZ/ml, respectively) were prepared in carboxymethylcellulose (CMC) 0.5% (w/v) in water. […]
as §1

The nature of data set [5]: Single-dose pharmacokinetic study, serum levels of TIZ, TIZ-gluc and ABZSO (Example 4). It is filed as in vivo. As to conditions: non-infected Balb/c mice; single dose 1 mg ABZ or 3 mg/1 mg NTZ/ABZ. Here is the method:
A total of 120 6-week old non-infected Balb/c mice were divided into three treatment groups: group 1 (NTZ—30 mice), group 2 (ABZ—30 mice), group 3 (NTZ/ABZ—60 mice). They received a single dose of 3 mg NTZ (group 1), 1 mg ABZ (group 2) and 3 mg/1 mg of NTZ/ABZ (group 3) in a volume of 100 μl suspended in 0.5% CMC. At defined time points following inoculation, (0, 1, 2, 4, 6, 8, 12, 24 and 48 h), blood samples were obtained from three mice/group, and blood levels of tizoxanide (TIZ), tizoxanide-glucuronide (TIZ-gluc) and ABZSO were assayed.
TIZ and Tiz-gluc were extracted from mouse serum samples using protein precipitation with acetonitrile. The supernatant was evaporated and reconstituted in injection solvent before injection. Chromatographic separation was achieved on a C18 column (5 pm 70×2 mm). Detection was by a mass spectrometer with an ion spray ionization source. Negative ions were detected in multiple reaction monitoring mode (Q1=264 m/z and Q3=216.9 m/z for TIZ, and Q1=439.9 m/z and Q3=263.9 m/z for TIZ-gluc). The lower limits of quantitation were 0.05 μg/ml and 0.2 μg/ml for TIZ and TIZ-gluc, respectively. […]

A further data set concerns E. multilocularis eggs. Put plainly: Primary infection with E. multilocularis eggs, chemotherapy starting at two months post infection (Example 3). It is filed as in vivo, Echinococcus multilocularis. Conditions: Balb/c mice, 2000 eggs intragastric; NTZ from 2 months p.i., daily for 35 days; infection control 5 lesions/mouse.
From the text: Infective E. multilocularis eggs were isolated from fox intestinal tissue as described (Pater, C., V. Muller, S. Harraga, M. Liance, V. Godot, J. P. Carbillet, D. Meillet, T. Romig, and D. A. Vuitton. 1998). Intestinal and systemic humoral immunological events in the susceptible Balb/C mouse strain after oral administration of Echinococcus multilocularis eggs. Parasite Immunol. 20: 623-9). The infectivity of this batch of eggs was pre-determined by titration-infection experiments in mice, and an infection dose of 2000 eggs was used.
Six week old Balb/c mice were housed in a temperature-controlled light-cycle room with food and water ad libitum. The mice were separated into experimental groups of 10 animals each. […]
For analysis of primary infection, the entire liver was removed, and lesion numbers were determined as described: Siles-Lucas, M., M. Merli, U. Mackenstedt and B. Gottstein 2003. […]
as §2

Data set [6] can be described thus: Solubility of NTZ in solvents. It is filed as physicochemical.
The nature of data set [7]: Oral absorption of NTZ (general statement).

A value given as a limit tells only on which side of the number the result lay.

`CCCSc1ccc2nc(NC(=O)OC)[nH]c2c1` [ABZ]: in data set [1], the “Ultrastructural alterations of metacestode tissue (TEM)” value was “parasite tissue was mostly reduced to only the tegument” and the “Histology of metacestode tissue” value is reported as “limited destructive effect”. The “Reduction in parasite weight (in words)” value in data set [2] is recorded as “significant reduction in parasite weight”. For the same compound, the “Time after which ABZSO disappears following ABZ uptake” value in data set [3] is reported as at most 10 h. The Parasite weight in data set [4] stood at 0.08 ± 0.01 g. In data set [5], the “ABZSO serum concentration at 12 h” value was “zero”.

As to `CC(=O)Oc1ccccc1C(=O)Nc1ncc([N+](=O)[O-])s1` [NTZ, 2-(acetolyloxy)-N-(5-nitro-2-thiazolyl)benzamide], the “Number of liver lesions (means)” value in the data set on E. multilocularis eggs is reported as 2.2 lesions/mouse. Besides, the solubility in data set [6] (DMSO, organic solvent or mixture) is at least 2000 µg/mL. The “Solubility in acetic acid” value in data set [6] (acetic acid) is recorded as “poorly soluble”. In addition, the Solubility in acetone entry in data set [6] (acetone) is “fairly soluble”. In data set [6] (chloroform), the Solubility in chloroform entry is on record as “poorly soluble”. In data set [6] (dioxane), the Solubility in dioxane entry is “fairly soluble”. Besides, in data set [6] (ethanol), the Solubility in ethanol result is on record as “poorly soluble”. The Solubility in ether entry in data set [6] (ether) is listed as “very poorly soluble”. Also, the “Solubility in methyl benzene” value in data set [6] (methyl benzene) is “very poorly soluble”. Also, in data set [6] (pyridine), the Solubility in pyridine result is recorded as “easily soluble”. The Solubility in water result in data set [6] (water) was “very poorly soluble”. In data set [1], the “Ultrastructural alterations of metacestode tissue (TEM)” value was “rather heterogeneous morphological features” and the “Histology of metacestode tissue” value was “limited destructive effect”. For the same compound, in data set [2], the “Reduction in parasite weight (in words)” value is listed as “not statistically significant”. In addition, the Oral absorption result in data set [7] is “easily absorbed orally”. Also, the Parasite weight in data set [4] was 0.17 ± 0.05 g.
